Patent publication US7510836B2, “Alpha arteether resistance domain” (priority 2003, dated 2009)
Converted amounts (≈) assume the structure as drawn.

Tests used:
Assay in all cases: Minimum inhibitory concentration (cross resistance)
Assay type in all cases: cell-based
E. coli mutant CA80012 = conditions: Escherichia coli, read-out: minimum inhibitory concentration (MIC)
From the text: (§1) In order to develop an arteether resistant mutants from an arteether sensitive strains a reverse strategy was applied. Quinoline/fluoroquinolone (Q/FQs) resistant strains were developed spontaneously i.e. screening overnight log phase culture of the Quinolone/fluoroquinolone sensitive i.e. arteether resistant strain (E coli CA 8000) on the poison agar plate of the Q/FQs. The Q/FQ resistant mutants which appeared on the poison agar plates were first purified through single colony purification and then checked for their arteether sensitivity. These arteether sensitive mutants on the contrary when checked for their Q/Fqs resistance they show different level of Q/FQs resistance.
(§2) The minimum inhibitory concentrations (MIC) of the quinolone and fluoroquinolone antibiotics were quantified for different strains and compared among each other. The differential response indicate the measure of resistance and sensitivity. Higher MIC indicate more resistance.

E. coli mutant CA8002 = conditions: Escherichia coli; strain CA8002
From the text: as §1, §2

E. coli mutant CA8009 = conditions: Escherichia coli; strain CA8009
From the text: as §1, §2

E. coli mutant CA8007 = conditions: Escherichia coli; strain CA8007
From the text: as §1, §2

E. coli mutant CA8005 = conditions: Escherichia coli; strain CA8005
From the text: as §1, §2

E. coli mutant CA8001 = conditions: Escherichia coli; strain CA8001
From the text: as §1, §2

E. coli mutant CA8003 = conditions: Escherichia coli; strain CA8003
From the text: as §1, §2

E. coli mutant CA80010 = conditions: Escherichia coli, read-out: minimum inhibitory concentration (MIC)
From the text: as §1, §2

E. coli mutant CA8006 = conditions: Escherichia coli; strain CA8006
From the text: as §1, §2

E. coli NK5819 = conditions: Escherichia coli; strain NK5819
From the text: as §2

E. coli DH5a = conditions: Escherichia coli; strain DH5a
From the text: as §2

E. coli ET8000 = conditions: Escherichia coli; strain ET8000
From the text: as §2

E. coli CA8000 = conditions: Escherichia coli; strain CA8000
From the text: as §2

SMILES | MIC (E. coli mutant CA80012) | MIC (E. coli mutant CA8002) | MIC (E. coli mutant CA8009) | MIC (E. coli mutant CA8007) | MIC (E. coli mutant CA8005) | MIC (E. coli mutant CA8001) | MIC (E. coli mutant CA8003) | MIC (E. coli mutant CA80010) | MIC (E. coli mutant CA8006) | MIC (E. coli NK5819) | MIC (E. coli DH5a) | MIC (E. coli ET8000) | MIC (E. coli CA8000)
C[C@@H]1CN(c2c(F)c(N)c3c(=O)c(C(=O)O)cn(C4CC4)c3c2F)C[C@H](C)N1 [Sparfloxacin] | 40 µg/mL (≈ 102 µM) | 20 µg/mL (≈ 51 µM) | 40 µg/mL (≈ 102 µM) | 20 µg/mL (≈ 51 µM) | 20 µg/mL (≈ 51 µM) | 20 µg/mL (≈ 51 µM) | 20 µg/mL (≈ 51 µM) | 40 µg/mL (≈ 102 µM) | 40 µg/mL (≈ 102 µM) | 10 µg/mL (≈ 25.5 µM) | 10 µg/mL (≈ 25.5 µM) | 20 µg/mL (≈ 51 µM) | < 0.05 µg/mL
CCn1cc(C(=O)O)c(=O)c2cc(F)c(N3CCNCC3)cc21 [Norfloxacin] | 15 µg/mL (≈ 47 µM) | 15 µg/mL (≈ 47 µM) | 15 µg/mL (≈ 47 µM) | 15 µg/mL (≈ 47 µM) | 10 µg/mL (≈ 31.3 µM) | 15 µg/mL (≈ 47 µM) | 15 µg/mL (≈ 47 µM) | 15 µg/mL (≈ 47 µM) | 20 µg/mL (≈ 62.6 µM) | 25 µg/mL (≈ 78.3 µM) | 20 µg/mL (≈ 62.6 µM) | 50 µg/mL (≈ 157 µM) | < 0.05 µg/mL
O=C(O)c1cn(C2CC2)c2cc(N3CCNCC3)c(F)cc2c1=O [Ciprofloxacin] | 0.1 µg/mL (≈ 0.302 µM) | < 0.1 µg/mL | 0.1 µg/mL (≈ 0.302 µM) | 0.1 µg/mL (≈ 0.302 µM) | 0.1 µg/mL (≈ 0.302 µM) | < 0.1 µg/mL | < 0.1 µg/mL | 0.1 µg/mL (≈ 0.302 µM) | 0.1 µg/mL (≈ 0.302 µM) | < 0.1 µg/mL | 0.1 µg/mL (≈ 0.302 µM) | 0.5 µg/mL (≈ 1.51 µM) | < 0.05 µg/mL
